Patent US7687651B2, “Method for the preparation of trans-or cis-diammoniumdichlorodihydroxoplatinum(IV) and the use thereof in the production of pharmaceutical active substances” (priority 2003, dated 2010)

What was measured:
Type in all cases: cell-based, human
BxPC3 Pancreatic cancer = experiment: Growth inhibition test on BxPC3 cells
Procedure: (§1) The effect of cis-oxoplatin Ca and cis-oxoplatin was compared on 10 cell lines (Table 4).
(§2) (IC50 values specified in μg/ml; the test was performed as a formazan test).

HT29 Colon carcinoma = experiment: Growth inhibition test on HT29 cells
Procedure: as §1, §2

Colo205 Colon carcinoma = experiment: Growth inhibition test on Colo205 cells
Procedure: as §1, §2

T47D Breast cancer = experiment: Growth inhibition test on T47D cells
Procedure: as §1, §2

CaCo-2 Colon = experiment: Growth inhibition test on CaCo-2 cells; conditions: for IC50: CaCo-2 Colon
Procedure: as §1, §2

CRO2B Carcinoid = experiment: Growth inhibition test on CRO2B cells; conditions: for IC50: CRO2B Carcinoid
Procedure: as §1, §2

Du145 Prostate = experiment: Growth inhibition test on Du145 cells; conditions: for IC50: Du145 Prostate
Procedure: as §1, §2

SW480 Colon = experiment: Growth inhibition test on SW480 cells; conditions: for IC50: SW480 Colon
Procedure: as §1, §2

MDA-MB-435 Breast = experiment: Formazan test on MDA-MB-435 cells; conditions: Table 4
Procedure: as §1, §2

BT20 Breast = experiment: Formazan test on BT20 cells; conditions: Table 4
Procedure: as §1, §2

10 cell lines (Table 4) = experiment: Formazan test, IC50 mean value for all cell lines of Table 4; conditions: mean over the 10 cell lines of Table 4
Procedure: as §1, §2

HOS Osteosarcoma = experiment: Growth inhibition test on HOS cells; conditions: Table 1
Procedure: (§3) Growth inhibition tests on various human cell lines show the different activities of cisplatin, cis-oxoplatin and oxaliplatin. […] The following Table illustrates the results produced with cisplatin, oxoplatin, carboplatin and oxaliplatin (the values specified are IC50 values in μg/ml, i.e., the concentration where 50% of the cells survive, nd=not determined; res=resistant=non-sensitive or IC50 value cannot be determined at a concentration of up to 40 μg/ml; IC=inhibition concentration).

SaOS Osteosarcoma = experiment: Growth inhibition test on SaOS cells; conditions: Table 1
Procedure: as §3

PC3 Prostate = experiment: Growth inhibition test on PC3 cells; conditions: for IC50: PC3 Prostate; for % Survival: PC3 cells
Procedure: as §3

M607 Melanoma = experiment: Growth inhibition test on M607 cells; conditions: Table 1
Procedure: as §3

M518 Melanoma = experiment: Growth inhibition test on M518 cells; conditions: Table 1
Procedure: as §3

Me128 Melanoma = experiment: Growth inhibition test on Me128 cells; conditions: Table 1
Procedure: as §3

JVSO Melanoma = experiment: Growth inhibition test on JVSO cells; conditions: Table 1
Procedure: as §3

Panc1 Pancreatic cancer = experiment: Growth inhibition test on Panc1 cells; conditions: Table 1
Procedure: as §3

[1] = system: MiaPaCa2 Pancreatic cancer; experiment: Growth inhibition test on MiaPaCa2 cells; conditions: Table 1
Procedure: as §3

HCT8 Colon carcinoma = experiment: Growth inhibition test on HCT8 cells; conditions: Table 1
Procedure: as §3

HCT-15 Colon carcinoma = experiment: Growth inhibition test on HCT-15 cells; conditions: Table 1
Procedure: as §3

A498 Renal cells = experiment: Growth inhibition test on A498 cells; conditions: Table 1
Procedure: as §3

C320DM Colon carcinoma = experiment: Growth inhibition test on C320DM cells; conditions: Table 1
Procedure: as §3

CC1227 Colon carcinoma = experiment: Growth inhibition test on CC1227 cells; conditions: Table 1
Procedure: as §3

MCF-7 Breast cancer = experiment: Growth inhibition test on MCF-7 cells; conditions: Table 1
Procedure: as §3

SK-OV3 Ovarian cancer = experiment: Growth inhibition test on SK-OV3 cells; conditions: Table 2
Procedure: as §3

U 373 MG Astrocytoma = experiment: Growth inhibition test on U 373 MG cells; conditions: Table 2
Procedure: as §3

SK-OV4 Ovarian cancer = experiment: Growth inhibition test on SK-OV4 cells
Procedure: as §3

SIM Sarcoma = experiment: Growth inhibition test on SIM cells
Procedure: as §3
What is seen primarily in children are leukemias, neuroblastomas and Ewing's sarcoma/peripheral neuroectodermal tumors (group of the Ewing family of tumors=EFT). The investigated tumor cell lines include three EFTs (EW-7, SIM and KAL), as well as two neuroblastoma cell lines (NB: LAN1 and LAN5; Los Angeles neuroblastoma=LAN) (see Table 3).

[2] = system: HT29, SW480, SK-OV4, PC3, SIM, CaCO-2, DU145 and CRO2B cells; experiment: Growth inhibition, IC50 over eight cell lines of Table 2; conditions: CaCO-2, DU145, CRO2B
Procedure: as §3
The activities differ according to the cell line.

[3] = Table 1, BxPC3 Pancreatic cancer
[4] = Table 1, Colo205 Colon carcinoma

cis-diammoniumdichlorodihydroxoplatinum(IV) Calcium Salt [Oxoplatin Ca]
IC50 (BxPC3 Pancreatic cancer; Table 4, BxPC3 Pancreas, formazan test): 30.0 µg/mL
IC50 (HT29 Colon carcinoma; Table 4, HT29 Colon, formazan test): 8.0 µg/mL
IC50 (Colo205 Colon carcinoma; Table 4, Colo205 Colon, formazan test): 13.5 µg/mL
IC50 (T47D Breast cancer; Table 4, T47D Breast, formazan test): 3.6 µg/mL
IC50 (CaCo-2 Colon; Table 4, formazan test): 0.87 µg/mL
IC50 (CRO2B Carcinoid; Table 4, formazan test): 2.20 µg/mL
IC50 (Du145 Prostate; Table 4, formazan test): 14.5 µg/mL
IC50 (SW480 Colon; Table 4, formazan test): 2.5 µg/mL
IC50 (MDA-MB-435 Breast): 12.0 µg/mL
IC50 (BT20 Breast): 3.5 µg/mL
IC50 (±SEM) mean value for all cell lines (10 cell lines (Table 4)): 9.1 ± 2.8 µg/mL

N.N.O=C([O-])C1(C(=O)[O-])CCC1.[Pt+2] [Carboplatin, carboplatin]
IC50 (HOS Osteosarcoma): 5 µg/mL
IC50 (SaOS Osteosarcoma): 5 µg/mL
IC50 (PC3 Prostate; Table 1): 10 µg/mL
IC50 (M607 Melanoma): 10 µg/mL
IC50 (M518 Melanoma): res (res=resistant=non-sensitive or IC50 value cannot be determined at a concentration of up to 40 μg/ml)
IC50 (Me128 Melanoma): 10 µg/mL
IC50 (JVSO Melanoma): res (res=resistant=non-sensitive or IC50 value cannot be determined at a concentration of up to 40 μg/ml)
IC50 (Panc1 Pancreatic cancer): 20 µg/mL
IC50 (BxPC3 Pancreatic cancer; [3]): 10 µg/mL
IC50 [1]: 5 µg/mL
IC50 (HCT8 Colon carcinoma): res (res=resistant=non-sensitive or IC50 value cannot be determined at a concentration of up to 40 μg/ml)
IC50 (HT29 Colon carcinoma; Table 1, HT29 Colon carcinoma): 20 µg/mL
IC50 (HCT-15 Colon carcinoma): res (res=resistant=non-sensitive or IC50 value cannot be determined at a concentration of up to 40 μg/ml)
IC50 (A498 Renal cells): res (res=resistant=non-sensitive or IC50 value cannot be determined at a concentration of up to 40 μg/ml)
IC50 (C320DM Colon carcinoma): 10 µg/mL
IC50 (Colo205 Colon carcinoma; [4]): res (res=resistant=non-sensitive or IC50 value cannot be determined at a concentration of up to 40 μg/ml)
IC50 (CC1227 Colon carcinoma): res (res=resistant=non-sensitive or IC50 value cannot be determined at a concentration of up to 40 μg/ml)
IC50 (MCF-7 Breast cancer): res (res=resistant=non-sensitive or IC50 value cannot be determined at a concentration of up to 40 μg/ml)

[NH2][Pt]([NH2])([O-])([O-])([Cl])[Cl].[Na+].[Na+] [cis-Oxoplatin sodium salt, cis-diammoniumdichlorodihydroxoplatinum(IV) Disodium Salt]
more effective than cis-oxoplatin (PC3 Prostate; PC3, Na salt versus cis-oxoplatin): about 30%
% Survival (PC3 Prostate; Conc. 5 μg/ml): 109.3 ± 9.1%
% Survival (PC3 Prostate; Conc. 10 μg/ml): 77.7 ± 2.4%
% Survival (PC3 Prostate; Conc. 20 μg/ml): 33.2 ± 3.0%
% Survival (PC3 Prostate; Conc. 40 μg/ml): 0.6 ± 0.5%
IC50 (PC3 Prostate; Table 2): 5.3 µg/mL
IC50 (BxPC3 Pancreatic cancer; Table 2, BxPC3 Pancreatic carcinoma): 12 µg/mL
more effective than cis-oxoplatin (HT29 Colon carcinoma; HT29, Na salt versus cis-oxoplatin): about 70%
IC50 (HT29 Colon carcinoma; Table 2, HT29 Colon): 4.55 µg/mL
IC50 (T47D Breast cancer; Table 2, T47D Breast cancer): 18 µg/mL
IC50 (SK-OV3 Ovarian cancer): 22 µg/mL
IC50 (U 373 MG Astrocytoma): 18 µg/mL
more effective than cis-oxoplatin (SK-OV4 Ovarian cancer; SK-OV4, Na salt versus cis-oxoplatin): about 30%
IC50 (SK-OV4 Ovarian cancer; Table 2, SK-OV4 Ovarian cancer): 12.8 µg/mL
efficiency compared with cis-oxoplatin (CaCo-2 Colon; CaCO-2, Na salt versus cis-oxoplatin): less efficient
IC50 (CaCo-2 Colon; Table 2): 2.22 µg/mL
efficiency compared with cis-oxoplatin (CRO2B Carcinoid; CRO2B, Na salt versus cis-oxoplatin): less efficient
IC50 (CRO2B Carcinoid; Table 2): 10.1 µg/mL
efficiency compared with cis-oxoplatin (Du145 Prostate; DU145, Na salt versus cis-oxoplatin): less efficient
IC50 (Du145 Prostate; Table 2): 27.0 µg/mL
more effective than cis-oxoplatin (SW480 Colon; SW480, Na salt versus cis-oxoplatin): about 70%
IC50 (SW480 Colon; Table 2): 2.5 µg/mL
more effective than cis-oxoplatin (SIM Sarcoma; SIM, Na salt versus cis-oxoplatin): about 30%
IC50 (SIM Sarcoma; Table 2, SIM Sarcoma): 11.2 µg/mL
IC50 values of these cells (mean ± spread) [2]: 9.5 ± 8 µg/mL

O=C1[O][Pt]2([NH][C@@H]3CCCC[C@H]3[NH]2)[O]C1=O [Oxaliplatin, oxaliplatin]
IC50 (M607 Melanoma): 10 µg/mL
IC50 (M518 Melanoma): res (res=resistant=non-sensitive or IC50 value cannot be determined at a concentration of up to 40 μg/ml)
IC50 (Me128 Melanoma): 10 µg/mL
IC50 (JVSO Melanoma): res (res=resistant=non-sensitive or IC50 value cannot be determined at a concentration of up to 40 μg/ml)
IC50 (Panc1 Pancreatic cancer): 5 µg/mL
IC50 (BxPC3 Pancreatic cancer; [3]): 10 µg/mL
IC50 [1]: 5 µg/mL
IC50 (HCT8 Colon carcinoma): res (res=resistant=non-sensitive or IC50 value cannot be determined at a concentration of up to 40 μg/ml)
IC50 (HT29 Colon carcinoma; Table 1, HT29 Colon carcinoma): 20 µg/mL
IC50 (HCT-15 Colon carcinoma): 10 µg/mL
IC50 (A498 Renal cells): 10 µg/mL
IC50 (C320DM Colon carcinoma): 0.15 µg/mL
IC50 (Colo205 Colon carcinoma; [4]): 1 µg/mL
IC50 (CC1227 Colon carcinoma): 0.2 µg/mL
IC50 (MCF-7 Breast cancer): res (res=resistant=non-sensitive or IC50 value cannot be determined at a concentration of up to 40 μg/ml)
IC50 (T47D Breast cancer; Table 1, T47D Breast cancer): 0.1 µg/mL

N.N.[Cl][Pt][Cl] [Cisplatin, cisplatin]
IC50 (PC3 Prostate; Table 1): res (res=resistant=non-sensitive or IC50 value cannot be determined at a concentration of up to 40 μg/ml)
IC50 (M607 Melanoma): 0.3 µg/mL
IC50 (M518 Melanoma): 40 µg/mL
IC50 (Me128 Melanoma): 0.3 µg/mL
IC50 (JVSO Melanoma): 40 µg/mL
IC50 (Panc1 Pancreatic cancer): 1 µg/mL
IC50 (BxPC3 Pancreatic cancer; [3]): 0.6 µg/mL
IC50 [1]: 1.5 µg/mL
IC50 (HCT8 Colon carcinoma): 5 µg/mL
IC50 (HT29 Colon carcinoma; Table 1, HT29 Colon carcinoma): 0.3 µg/mL
IC50 (HCT-15 Colon carcinoma): 0.3 µg/mL
IC50 (A498 Renal cells): 1 µg/mL
IC50 (C320DM Colon carcinoma): 0.3 µg/mL
IC50 (Colo205 Colon carcinoma; [4]): 10 µg/mL
IC50 (CC1227 Colon carcinoma): 0.3 µg/mL
IC50 (MCF-7 Breast cancer): 2.5 µg/mL
IC50 (T47D Breast cancer; Table 1, T47D Breast cancer): 0.3 µg/mL
